Assay results published in US20110245528A1, “THERAPEUTIC COMPOUNDS” (priority 2008, published 2011).

Tests used:
Lewis rats = test: Rat Collagen-induced Arthritis (rCIA) Model; format: in vivo; conditions: paw swelling, bovine type II collagen-induced arthritis, oral gavage 0.3 mg/kg BID from day 8, day of peak disease, typically day 17
Procedure: Two-month-old, female Lewis rats (Charles River Labs) were anesthetized with 3-5% isoflurane and arthritis was induced by intradermal injection of 0.3 ml (100 μl at three different sites) of an emulsion containing 1.5 mg/ml of bovine type II collagen (CII) (Elastin Products Co. Inc. Owensville, Mo.) in Incomplete Freund's Adjuvant (IFA) (Difco Laboratories, Detroit, Mich.) on day 0 at the base of the tail using a 30 gauge needle. A second injection was given on day 6. Control rats were injected with an equal amount of IFA only.
Test compounds of Formula I are formulated by diluting concentrated ethanol stock solutions with phosphate buffered saline (PBS) and dosed by oral gavage at 0.3 mg/kg twice a day (BID). Dosing was initiated on day 8 and continued to the end of the study, generally day 19 or day 20. Control animals were administered PBS alone.
The volume of both hind paws were measured using a water displacement plethysmometer (Ugo Basile, Biological Research Apparatus, Italy), and the onset of arthritis was indicated by increased paw volume, which appears approximately on day 11 post injection. Both paw volumes and body weights are measured throughout the study every 2-3 days. Nineteen to twenty-one days after CII injection, the rats are euthanized with CO2. Blood is collected by cardiac puncture and serum is saved. Both hind ankles are collected in 10% buffered formalin and saved (they can later be processed for histology).
Percent inhibition values were measured as follows. First, the magnitude of disease effect was calculated by taking the difference in paw swelling between control animals and animals that had not been administered CII (“untreated effect”). Then, the difference is paw swelling between the compound-treated animals and the animals that had not been administered CII was determined (“treated effect”). The difference between the untreated effect and the treated effect is then divided by the […] and multiplied by 100 to arrive at percent inhibition. Percent inhibition reported was from day of “peak” or maximal disease (manifested by maximum paw swelling), typically day 17.

Balb/c mice = test: Murine Delayed-type-Hypersensitivity (DTH) Model; format: in vivo; conditions: Mus musculus, iv; ear swelling after DNFB challenge; 0.3 mg/kg intravenously once daily; measured within 24 to 48 hours after ear challenge
Procedure: Balb/c mice were sensitized by application of 20 μl of 0.5% of DNFB dissolved in acetone/olive oil to their footpads on day 0 and day 1. On day 5 animals are dosed intravenously with 0.3 mg/kg of test compound (or a negative control). Fifteen minutes later, 10 μl of 0.8% of DNFB dissolved in acetone/olive oil is topically applied externally on the right ear of the animal. As a control, the left ear is treated the same way with vehicle alone (acetone/olive oil).
The compounds (controls and test) are administered once daily until the completion of the study.
Within 24 to 48 hours after ear challenge, animals are anesthetized with isoflurane and the ear swelling is measured using a micrometer. The micrometer calipers are closed around the top portion of the each external ear until resistance from the ear is felt. Usually, the peak of the ear swelling happens around 48 hours after challenge.
Percent inhibition is determined in a similar manner as described for the CII model, above.

C#CCC/C=C/C=C/C#C[C@@H](O)CCCC(=O)O [Compound 302]
inhibition in vivo at 0.3 mg/kg (Lewis rats): 37%
inhibition in vivo at 0.3 mg/kg (Balb/c mice): 24%

C#CC[C@@H](O)/C=C/C=C/C#CCCCCC(=O)O [Compound 301]
inhibition in vivo at 0.3 mg/kg (Lewis rats): 11%
inhibition in vivo at 0.3 mg/kg (Balb/c mice): 15%

O=C(O)CCC[C@H](O)C#C/C=C/C=C/[C@H](O)Cc1ccc(F)cc1 [Compound 303]
inhibition in vivo at 0.3 mg/kg (Lewis rats): 0%
inhibition in vivo at 0.3 mg/kg (Balb/c mice): 21%

O=C(O)CCC[C@H](O)C#C/C=C/C=C/[C@H](O)CC#Cc1ccc(Cl)c(Cl)c1 [Compound 314]
inhibition in vivo at 0.3 mg/kg (Lewis rats): 27%
inhibition in vivo at 0.3 mg/kg (Balb/c mice): 28%

O=C(O)CC[C@H](O)C#C/C=C/C=C/[C@H](O)CC1CC1 [Compound 315]
inhibition in vivo at 0.3 mg/kg (Lewis rats): 7%
inhibition in vivo at 0.3 mg/kg (Balb/c mice): 32%

C#CC[C@@H](O)/C=C/C=C/[C@@H]1C[C@@H]1[C@@H](O)CCCC(=O)O [Compound 321]
inhibition in vivo at 0.3 mg/kg (Lewis rats): 10%
inhibition in vivo at 0.3 mg/kg (Balb/c mice): 32%

O=C(O)CCC[C@H](O)C#C/C=C/C=C/[C@H](O)CC#Cc1ccc(F)cc1 [Compound 306]
inhibition in vivo at 0.3 mg/kg (Balb/c mice): 16%

C#CC[C@@H](O)/C=C/C=C/C#CC(F)(F)CCCC(=O)O [Compound 320]
inhibition in vivo at 0.3 mg/kg (Lewis rats): 18%
inhibition in vivo at 0.3 mg/kg (Balb/c mice): 35%

O=C(O)CCC[C@H](O)C#C/C=C/C=C/[C@H](O)CC1CC1 [Compound 304]
inhibition in vivo at 0.3 mg/kg (Lewis rats): 28%
inhibition in vivo at 0.3 mg/kg (Balb/c mice): 20%

C#CC[C@@H](O)/C=C/C=C/C#C[C@H](O)CCCC(=O)O [Compound 323]
inhibition in vivo at 0.3 mg/kg (Lewis rats): 38%
inhibition in vivo at 0.3 mg/kg (Balb/c mice): 46%
